Measurements: patent publication US9981023B2, “Compositions and methods for inducing immune tolerance” (The Scripps Research Institute, priority 2010, dated 2018)

Target: T1, CD22 (Mus musculus, UniProt P35329)
T1 sequence (P35329 22-868): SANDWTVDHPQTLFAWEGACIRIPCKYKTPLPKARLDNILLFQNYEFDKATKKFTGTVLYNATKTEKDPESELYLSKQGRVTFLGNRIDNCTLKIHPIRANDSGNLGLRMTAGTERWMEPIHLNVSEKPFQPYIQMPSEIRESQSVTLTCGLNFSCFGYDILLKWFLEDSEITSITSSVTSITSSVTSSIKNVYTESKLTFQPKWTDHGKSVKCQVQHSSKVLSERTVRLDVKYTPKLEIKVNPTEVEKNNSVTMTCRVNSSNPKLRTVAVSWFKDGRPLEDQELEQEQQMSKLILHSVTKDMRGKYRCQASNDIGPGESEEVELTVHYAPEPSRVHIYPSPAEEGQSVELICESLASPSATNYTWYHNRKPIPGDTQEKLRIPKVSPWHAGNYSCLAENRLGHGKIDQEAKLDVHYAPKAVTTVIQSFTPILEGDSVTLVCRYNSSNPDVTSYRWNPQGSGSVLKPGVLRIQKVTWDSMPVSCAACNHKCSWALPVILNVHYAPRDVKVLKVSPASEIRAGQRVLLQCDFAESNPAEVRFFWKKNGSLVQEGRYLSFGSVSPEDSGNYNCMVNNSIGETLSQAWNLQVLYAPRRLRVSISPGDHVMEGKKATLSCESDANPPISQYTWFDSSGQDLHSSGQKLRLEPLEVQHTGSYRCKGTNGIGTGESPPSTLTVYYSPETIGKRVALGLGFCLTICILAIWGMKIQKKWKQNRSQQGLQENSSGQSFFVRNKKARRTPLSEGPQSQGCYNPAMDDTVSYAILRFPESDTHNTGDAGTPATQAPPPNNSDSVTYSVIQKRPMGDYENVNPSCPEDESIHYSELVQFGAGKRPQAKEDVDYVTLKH
Assay: Affinity of glycan ligand for CD22
Assay type: binding
Settings: natural ligand of CD22 relative to ^BPANeuGc

- affinity lower than the ^BPANeuGc ligand: approximately 200 fold
Structure (SMILES): CC(=O)NC1C(O)OC(CO)C(OC2OC(COC3(C(=O)O)CC(O)C(NC(=O)CO)C(C(O)C(O)CO)O3)C(O)C(O)C2O)C1O (stereo not shown) [NeuGcα2-6Galβ1-4GlcNAc]
